Laboratory results taken from PMC8776094, “Reactive Oxygen Species Production Is Responsible for Antineoplastic Activity of Osmium, Ruthenium, Iridium and Rhodium Half-Sandwich Type Complexes with Bidentate Glycosyl Heterocyclic Ligands in Various Cancer Cell Models” (International Journal of Molecular Sciences, 2022).

System: Saos, an osteosarcoma cell line
Assay: SRB assay, 48 h, cytostasis, Saos
Assay type: cell-based
Settings: for IC50 / Saos Max. Inh. (%): SRB assay; for Saos Max. Inh. (%): ND = not detected
Description: We turned next to assessing whether the cytostatic activity of Os-3, Os-4, Os-5, Os-6 and Ir-6 complexes is specific for ovarian cancer cell lines or if they may be active on other cell lines. To that end, we tested the complexes on another carcinoma cell line (Capan2, a pancreatic adenocarcinoma cell line), on a sarcoma cell line (Saos, an osteosarcoma cell line) and on a lymphoma cell line (L428, a Hodgkin’s lymphoma cell line).
Saos cells were maintained in DMEM (4.5 g/L glucose) medium, supplemented with 10% fetal calf serum, 2 mM glutamine, and 1% penicillin-streptomycin.
The assay was performed similarly to the method used in [73]. Cells were seeded in 96-well plates the day before the assay. Cells were treated with the compounds for 48 h, with the exception of L428, where 96 h of treatment was applied. Cells were fixed with 10% trichloroacetic acid (TCA). Fixed cells were washed in distilled water 3 times, followed by staining with SRB (0.4 m/V% dissolved in 1% acetic acid) for 10 min. The stained cells were washed in 1% acetic acid 5 times; the acetic acid was removed, and the cells were left to dry. Protein-bound SRB was released by adding 100 µL 10 mM Tris base. Plates were measured in a plate photometer (Thermo Scientific Multiscan GO spectrophotometer, Waltham, MA, USA) at 540 nm. On each plate, wells were designed to contain untreated cells. In calculations, the readings for these wells were considered as 1 and all readings were expressed relative to these values.
Statistical analysis was performed using the 8.0.1 version of Graphpad Prism. Values were tested for normal distribution, using the d’Agostino and Pearson normality test. When necessary, values were log-normalized or were normalized using the Box-Cox normalization method or using a two-step transformation, as indicated in the figure captions. Nonlinear regression was performed using the built-in “[Inhibitor] vs. Response—Variable slope (four parameters), least-square fit” utility of Graphpad, yielding the IC50 and Hill slope values.
Here, 1.5 × 10^3 Capan2, 3 × 10^3 Saos cells and 10^4 L428 cells were plated onto 96-well plates. Capan2 and Saos cells were treated with the compounds in the concentrations indicated for 48 h for an SRB assay. L428 cells were treated with the compounds in the concentrations indicated for 96 h, then cells were counted using conventional microscopy and a Burker chamber. Data are represented as average ± SD, from three biological replicates; individual assays were performed in duplicate. Values were normalized for vehicle-treated cells; the absorbance for vehicle-treated cells is equal to 1. A one-way ANOVA, followed by a Kruskal–Wallis test, was performed individually for each compound. The results of the statistical analysis are presented in an Excel spreadsheet at https://figshare.com/s/28d14597d5041f08eb08 (accessed on 6 January 2022). Nonlinear regression was performed on the data.

Compound | cytostatic activity on Saos cells (in words) | IC50 [µM] | Saos Max. Inh. (%)
Cc1c(C)c(C)[c-](C)c1C.F[P-](F)(F)(F)(F)F.O=C(OCC1OC(n2cc(-c3ccccn3)nn2)C(OC(=O)c2ccccc2)C(OC(=O)c2ccccc2)C1OC(=O)c1ccccc1)c1ccccc1.[Cl][Ir+2] (mixture of isomers) [Ir-6] | active on all cell lines | 2.71 | 100
Cc1ccc(C(C)C)cc1.F[P-](F)(F)(F)(F)F.O=C(OCC1OC(c2nnc(-c3ccccn3)o2)C(OC(=O)c2ccccc2)C(OC(=O)c2ccccc2)C1OC(=O)c1ccccc1)c1ccccc1.[Cl][Os+] (mixture of isomers) [Os-3] | active on all cell lines | – | 65
Cc1ccc(C(C)C)cc1.F[P-](F)(F)(F)(F)F.O=C(OCC1OC(c2nnc(-c3ccccn3)o2)C(OC(=O)c2ccccc2)C(OC(=O)c2ccccc2)C1OC(=O)c1ccccc1)c1ccccc1.[Cl][Os+] (mixture of isomers) [Os-4] | active on all cell lines | 8.78 | 100
Cc1ccc(C(C)C)cc1.F[P-](F)(F)(F)(F)F.O=C(OC1COC(c2nnc(-c3ccccn3)o2)C(OC(=O)c2ccccc2)C1OC(=O)c1ccccc1)c1ccccc1.[Cl][Os+] (mixture of isomers) [Os-5] | active on all cell lines | 8.52 | 100
Cc1ccc(C(C)C)cc1.F[P-](F)(F)(F)(F)F.O=C(OCC1OC(n2cc(-c3ccccn3)nn2)C(OC(=O)c2ccccc2)C(OC(=O)c2ccccc2)C1OC(=O)c1ccccc1)c1ccccc1.[Cl][Os+] (mixture of isomers) [Os-6] | active on all cell lines | 3.6 | 100
